Entries after “also recorded” stand apart in the source; their conditions may differ.
System: RTS patient cells
Assay: Intracellular ROS in RTS cells measured by oxidation of CM-H2DCFDA after DNA damage
Format: cell-based, human
Conditions: post exposure to mitomycin C, FIG. 10E
Excerpt: By transmission electron microscopy (TEM) we observed that the mitochondrial cristae were distorted and the intercristal space expanded in all the RTS fibroblasts grown under asynchronous conditions (FIG. 10A). The extent of the cristae space is known to affect the overall chemiosmotic function in the cell (Mannella, 2006). […] Apart from ATP, mitochondria also produce the reactive oxygen species (ROS). Spontaneous ROS levels are usually low in normal cells as elevation of ROS levels can result in significant damage to cell structure (Schumacker, 2006). Indeed the level of ROS in asynchronous NHF was low as determined by the oxidation of 5-(and-6)-chloromethyl-2′,7′-dichlorodihydrofluorescein diacetate, acetyl ester (CM-H2DCFDA). […] Mitochondrial mass was determined by usage of a fluorescent dye Mitotracker Red 580 (200 nM, Invitrogen). […] The cells were subsequently washed, fixed and then analyzed in a Zeiss 510 Meta system with a 40×/0.95 Con objective. The fluorescence was captured initially for NHF and the acquisition parameters were kept unchanged for the capture of the fluorescence for the RTS cells. […] The activity was measured at 412 nm at 30° C. using 10 μg for each sample. Activity was expressed as nmole/min/mg of protein. Intracellular ROS in RTS cells was measured by the oxidation of CM-H2DCFDA (4 μM, Invitrogen). […]

## O=C1O[C@H]([C@@H](O)CO)C(O)=C1O [ascorbic acid]
  effect on abnormally high ROS levels in RTS cells after DNA damage: decreases the load of reactive oxygen species; also recorded: reversed this effect

From patent US20120122085A1, “RECQL4/RECQL4 VARIANT-P53 COMPLEX FOR ALTERED MITOCHONDRIAL FUNCTION IN ROTHMUND-THOMSON SYNDROME” (NATIONAL INSTUTUTE OF IMMUNOLOGY, priority 2009, published 2012)
